{"source": "paper PMC9599717", "about": "“The Multicellular Effects of VDAC1 N-Terminal-Derived Peptide” (Biomolecules, 2022)", "key": {"vinculin in U-87MG cells": {"test_system": "vinculin in U-87MG cells", "assay": "Vinculin immunofluorescence staining intensity", "type": "cell-based, human", "experimental": "Cells were seeded on sterile glass coverslips in 12-well plates and cultured until reaching about 80% confluence. Cells were treated with D-Δ(1-18)N-Ter-Antp peptide in serum-free DMEM for 24 h. Then cells were washed with PBS, fixed in 4% paraformaldehyde for 20 min, washed three times with PBS, permeabilized with 0.3% Triton X-100 in PBS, and blocked, in blocking buffer (10% Normal goat serum, 1% fatty acid-free bovine serum albumin [BSA], 0.1% TritonX100 diluted in PBS) for 2 h. Cells were incubated overnight at 4 ℃ with the appropriate primary antibodies (Table S1), followed by three washes with PBS. […]\nQuantitation of protein levels, as reflected in the staining intensity, was analyzed in the whole area of the sections using Image J software.\nFigure 2 D-Δ(1-18)N-Ter-Antp-induced changes in cell morphology and cell membrane permeability. (A,B) U-87MG cells were treated with the indicated concentrations of D-Δ(1-18)N-Ter-Antp peptide for 16 h, and cell morphology was monitored by light microscope (A). Quantification of cell size (B). (C,D) U-87MG cells were untreated or treated with 10 μM of D-Δ(1-18)N-Ter-Antp peptide or N-TerΔ(21-26)-Antp for 24 h, and cell morphology was monitored by light microscope (C). Quantification of cell size (D). […] Quantification of vinculin staining intensity (F). […]"}, "U-87MG cells": {"test_system": "U-87MG cells", "assay": "Live-cell imaging (HoloMonitor) of cell division and re-fusion of daughter cells", "type": "cell-based, human", "set-up": "dose or concentration left out as unconfirmed", "settings": "24 h incubation", "experimental": "Cells were seeded in a 6-well plates, treated with D-Δ(1-18)N-Ter-Antp peptide for 24 h, and monitored with the Holomonitor live cell imaging system (Holographic Imaging, Lund, Sweden) for 24 h at 37 °C and 5% CO2 or with a microscope (LX2-KSP; Olympus, Shinjuku, Tokyo, Japan), with images captured by a CCD camera.\nFigure 8 D-Δ(1-18)N-Ter-Antp peptide induced apoptosis and altered cell division. (A) HeLa cells were treated with D-Δ1-18N-Ter-Antp (5 μM, 24 h) and monitored using a live-imaging microscope (HoloMonitor). The time course of cell division is presented. Division–fusion phase times are represented in relation to D-Δ(1-18)N-Ter-Antp administration time (T = 0). i. The cells are in a pre-division stage. ii. The cell divides into two cells. iii. The cell becomes partially fused. iv. The cells become fully fused into one large cell. v. Finally, they become an apoptotic cell. (B,C) HeLa cells incubated with the peptide (10 μM, 24 h) and then stained with anti-tubulin antibodies, followed by secondary anti-mouse-cy3 antibodies (red) followed by actin staining with Phalloidin-488 (green), nuclei stained with DAPI (blue) and visualized by confocal microscopy. Cells with divided nuclei that were connected or in a re-fused state are circled (C). (D) Schematic illustration of cell division phases of control and D-Δ(1-18)N-Ter-Antp peptide-treated cells.\nFigure A1 Vedio S1. […]"}}}
{"substance": "19-FTKGYGFGL-26- RQIKIWFQNRRMKWKK [D-Δ(1-18)N-Ter-Antp]", "values": [{"measurement": "Increase of vinculin expression compared to untreated cells", "setting": "vinculin in U-87MG cells", "result": 4, "unit": "fold"}, {"measurement": "Percentage of cells with re-fusion of daughter cells", "setting": "U-87MG cells", "result": "60–80%"}]}
